Measurements published in ChEMBL document CHEMBL3046947, “Synthesis and antimicrobial activity studies of some novel substituted phenylhydrazono-1H-tetrazol-5-yl-acetonitriles” (2010).
Activity calls are given as the source filed them. The rule behind the calls is not given here.

Legend:
[1] = system: Escherichia coli; assay: Antibacterial activity against Escherichia coli ATCC 35218 at 1 mg/ml after 24 hr by agar well diffusion method; type: functional; details: for zone of inhibition at 1000 µg/mL: ATCC 35218, 24 h, read-out: IZ
[2] = system: Bacillus cereus; assay: Antibacterial activity against Bacillus cereus RSKK 863 at 1 mg/ml after 24 hr by agar well diffusion method; type: functional; details: for zone of inhibition at 1000 µg/mL: RSKK 863, 24 h, read-out: IZ
[3] = system: Pseudomonas aeruginosa; assay: Antibacterial activity against Pseudomonas aeruginosa […] at 1 mg/ml after 24 hr by agar well diffusion method; type: functional; details: for zone of inhibition at 1000 µg/mL: read-out: IZ
[4] = system: Staphylococcus aureus; assay: Antibacterial activity against Staphylococcus aureus TP32 clinical isolate at 1 mg/ml after 24 hr by agar well diffusion method; type: functional; details: for zone of inhibition at 1000 µg/mL: TP32, 24 h, read-out: IZ
[5] = system: Pseudomonas aeruginosa; assay: Antibacterial activity against Pseudomonas aeruginosa […] at 10 ug/disk after 24 hr by agar well diffusion method; type: functional, organism-based
[6] = system: Escherichia coli; assay: Antibacterial activity against Escherichia coli ATCC 35218 at 10 ug/disk after 24 hr by agar well diffusion method; type: functional; details: ATCC 35218, 24 h, read-out: IZ
[7] = system: Bacillus cereus; assay: Antibacterial activity against Bacillus cereus RSKK 863 at 10 ug/disk after 24 hr by agar well diffusion method; type: functional; details: RSKK 863, 24 h, read-out: IZ
[8] = system: Pseudomonas aeruginosa; assay: Antibacterial activity against Pseudomonas aeruginosa […] at 30 ug/disk after 24 hr by agar well diffusion method; type: functional
[9] = system: Escherichia coli; assay: Antibacterial activity against Escherichia coli ATCC 35218 at 30 ug/disk after 24 hr by agar well diffusion method; type: functional, organism-based
[10] = system: Bacillus cereus; assay: Antibacterial activity against Bacillus cereus RSKK 863 at 30 ug/disk after 24 hr by agar well diffusion method; type: functional; details: for zone of inhibition at 30 µg/disc: RSKK 863, 24 h, read-out: IZ
[11] = system: Pseudomonas aeruginosa; assay: Antibacterial activity against Pseudomonas aeruginosa […] at 10 units/disk after 24 hr by agar well diffusion method; type: functional, organism-based
[12] = system: Escherichia coli; assay: Antibacterial activity against Escherichia coli ATCC 35218 at 10 units/disk after 24 hr by agar well diffusion method; type: functional
[13] = system: Bacillus cereus; assay: Antibacterial activity against Bacillus cereus RSKK 863 at 10 units/disk after 24 hr by agar well diffusion method; type: functional, organism-based
[14] = system: Pseudomonas aeruginosa; assay: Antibacterial activity against Pseudomonas aeruginosa […] at 15 ug/disk after 24 hr by agar well diffusion method; type: functional, organism-based
[15] = system: Escherichia coli; assay: Antibacterial activity against Escherichia coli ATCC 35218 at 15 ug/disk after 24 hr by agar well diffusion method; type: functional; details: ATCC 35218, 24 h, read-out: IZ
[16] = system: Bacillus cereus; assay: Antibacterial activity against Bacillus cereus RSKK 863 at 15 ug/disk after 24 hr by agar well diffusion method; type: functional; details: RSKK 863, 24 h, read-out: IZ

SMILES | zone of inhibition at 1000 µg/mL [1] [mm] | zone of inhibition at 1000 µg/mL [2] [mm] | zone of inhibition at 1000 µg/mL [3] [mm] | zone of inhibition at 1000 µg/mL [4] [mm] | also measured
COc1ccc(N/N=C(\C#N)c2nnn[nH]2)cc1 | 10 | 7 | – | – | inhibition zone (IZ) [3]: inactive; inhibition zone (IZ) [4]: inactive
CC1(C)S[C@@H]2[C@H](NC(=O)[C@H](N)c3ccccc3)C(=O)N2[C@H]1C(=O)O [AMPICILLIN] | – | – | – | – | inhibition zone (IZ) [5]: inactive; zone of inhibition at 10 µg/disc [6]: 9 mm; zone of inhibition at 10 µg/disc [7]: 20 mm
N#C/C(=N\Nc1ccc(F)cc1)c1nnn[nH]1 | 11 | 19 | 8 | 10 | –
COc1ccccc1N/N=C(\C#N)c1nnn[nH]1 | – | – | – | – | inhibition zone (IZ) [1]: inactive; inhibition zone (IZ) [2]: inactive; inhibition zone (IZ) [3]: inactive; inhibition zone (IZ) [4]: inactive
N#C/C(=N\Nc1ccccc1I)c1nnn[nH]1 | 7 | 17 | 5 | 3 | –
CN[C@H](CC(C)C)C(=O)N[C@H]1C(=O)N[C@@H](CC(N)=O)C(=O)N[C@H]2C(=O)N[C@H]3C(=O)N[C@H](C(=O)N[C@H](C(=O)O)c4cc(O)cc(O)c4-c4cc3ccc4O)[C@H](O)c3ccc(c(Cl)c3)Oc3cc2cc(c3O[C@@H]2O[C@H](CO)[C@@H](O)[C@H](O)[C@H]2O[C@H]2C[C@](C)(N)[C@H](O)[C@H](C)O2)Oc2ccc(cc2Cl)[C@H]1O [VANCOMYCIN] | – | – | – | – | inhibition zone (IZ) [8]: inactive; inhibition zone (IZ) [9]: inactive; zone of inhibition at 30 µg/disc [10]: 17 mm
N#C/C(=N\Nc1ccccc1Cl)c1nnn[nH]1 | – | 5 | 10 | 7 | inhibition zone (IZ) [1]: inactive
N#C/C(=N\Nc1ccccc1Br)c1nnn[nH]1 | 7 | 12 | 3 | – | inhibition zone (IZ) [4]: inactive
N#C/C(=N\Nc1ccc(Br)cc1)c1nnn[nH]1 | 14 | 20 | 8 | 6 | –
OC(Cn1cncn1)(Cn1cncn1)c1ccc(F)cc1F | – | – | – | – | inhibition zone (IZ) [8]: inactive; inhibition zone (IZ) [9]: inactive; inhibition zone (IZ) [10]: inactive
Cc1ccc(N/N=C(\C#N)c2nnn[nH]2)cc1 | 10 | 20 | 8 | 8 | –
CC1(C)S[C@@H]2[C@H](NC(=O)Cc3ccccc3)C(=O)N2[C@H]1C(=O)O [PENICILLIN G] | – | – | – | – | inhibition zone (IZ) [11]: inactive; inhibition zone (IZ) [12]: 17 mm; inhibition zone (IZ) [13]: inactive
N#C/C(=N\Nc1ccc(Cl)cc1)c1nnn[nH]1 | 10 | 21 | 8 | 6 | –
N#C/C(=N\Nc1ccccc1[N+](=O)[O-])c1nnn[nH]1 | 7 | 10 | 4 | 4 | –
CN(C)[C@@H]1C(O)=C(C(N)=O)C(=O)[C@@]2(O)C(O)=C3C(=O)c4c(O)cccc4[C@@](C)(O)[C@H]3C[C@@H]12 [TETRACYCLINE] | – | – | – | – | zone of inhibition at 30 µg/disc ([8]; read-out: IZ): 16 mm; inhibition zone (IZ) [9]: inactive; zone of inhibition at 30 µg/disc [10]: 17 mm
Cc1ccccc1N/N=C(\C#N)c1nnn[nH]1 | 10 | 20 | 5 | 4 | –
N#C/C(=N\Nc1ccccc1)c1nnn[nH]1 | 7 | 15 | 9 | 8 | –
N#C/C(=N\Nc1ccccc1F)c1nnn[nH]1 | 14 | 19 | 4 | 5 | –
N#C/C(=N\Nc1ccc([N+](=O)[O-])cc1)c1nnn[nH]1 | 10 | 11 | 5 | 3 | –
N#C/C(=N\Nc1ccc(I)cc1)c1nnn[nH]1 | 7 | 10 | 9 | 8 | –
CC[C@H]1OC(=O)[C@H](C)[C@@H](O[C@H]2C[C@@](C)(OC)[C@@H](O)[C@H](C)O2)[C@H](C)[C@@H](O[C@@H]2O[C@H](C)C[C@H](N(C)C)[C@H]2O)[C@](C)(O)C[C@@H](C)C(=O)[C@H](C)[C@@H](O)[C@]1(C)O [ERYTHROMYCIN] | – | – | – | – | inhibition zone (IZ) [14]: inactive; zone of inhibition at 15 µg/disc [15]: 11 mm; zone of inhibition at 15 µg/disc [16]: 19 mm
